Source: patent US20080261976A1, “NOVEL PIPERIDINECARBOXAMIDE DERIVATIVES, METHOD FOR PREPARING SAME AND PHARMACEUTICAL COMPOSITIONS CONTAINING SAME” (SANOFI-AVENTIS, priority 2001, published 2008)
pKi: −log10 of the molar value. Structures can show the parent of a compound that is named as a salt. Where two headings read alike, the source gives them in different places.

Assays:
NK2 receptors [1] = target: T1, NK2 receptors (Rattus norvegicus, UniProt P16610); conditions: rats, literature reference; cited from earlier work
T1 construct: from tissue; host or cells: rat brain (septum/hippocampus; prefrontal cortex), living animal
T1 sequence (P16610 1-390): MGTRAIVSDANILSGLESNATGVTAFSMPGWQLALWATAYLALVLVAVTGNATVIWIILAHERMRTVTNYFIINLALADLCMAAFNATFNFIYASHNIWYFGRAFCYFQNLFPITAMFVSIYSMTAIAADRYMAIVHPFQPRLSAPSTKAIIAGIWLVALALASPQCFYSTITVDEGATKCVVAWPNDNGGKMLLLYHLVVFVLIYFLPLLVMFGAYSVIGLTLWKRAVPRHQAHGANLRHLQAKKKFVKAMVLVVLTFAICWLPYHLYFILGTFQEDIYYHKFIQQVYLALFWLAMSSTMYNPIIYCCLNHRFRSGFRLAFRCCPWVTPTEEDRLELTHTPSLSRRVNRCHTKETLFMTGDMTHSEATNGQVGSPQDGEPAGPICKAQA

[2] = target: T2, cloned human NK2 receptors (Homo sapiens, UniProt P21452); assay: Binding of [125I]His-NKA to cloned human NK2 receptors expressed by CHO cells; conditions: read-out: inhibition constant Ki, binding of [125I]His-NKA to cloned human NK2 receptors
T2 construct: expressed in transfected cells; host or cells: CHO cells
T2 sequence (P21452 1-398): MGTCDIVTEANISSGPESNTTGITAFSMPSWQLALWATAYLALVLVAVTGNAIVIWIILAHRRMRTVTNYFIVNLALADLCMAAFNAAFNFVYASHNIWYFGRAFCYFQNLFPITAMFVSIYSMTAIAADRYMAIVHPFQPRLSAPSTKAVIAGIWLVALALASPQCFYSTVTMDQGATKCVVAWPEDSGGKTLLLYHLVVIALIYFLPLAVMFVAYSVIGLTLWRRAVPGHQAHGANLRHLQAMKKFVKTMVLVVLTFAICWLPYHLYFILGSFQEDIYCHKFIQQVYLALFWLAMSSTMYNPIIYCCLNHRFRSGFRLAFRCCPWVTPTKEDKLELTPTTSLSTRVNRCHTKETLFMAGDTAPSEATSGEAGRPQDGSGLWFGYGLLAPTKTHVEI
Description: The affinity of the compounds for tachykinin receptors was evaluated in vitro by several biochemical tests using radioligands: 2) The binding of [^125I]|His-NKA to the cloned human NK2 receptors expressed by CHO cells (Y. Takeda et al., J. Neurochem., 1992, 59, 740-745). The tests were carried out according to X. Emonds-Alt et al. (Eur. J. Pharmacol., 1993, 250, 403-413; Life Sci., 1995, 56, PL 27-32). […] The inhibition constant Ki is less than or equal to 5×10^−10M.

NK3 receptor = assay: Rotating behaviour induced by intrastriatal senktide in gerbils; assay type: in vivo, gerbil
Description: This test was carried out according to X. Emonds-Alt et al., Life Sci., 1995, 56, PL27-PL32.

NK3 receptors [3] = target: T3, NK3 receptors (Cavia porcellus, UniProt P30098); assay: Haloperidol-induced increase in number of spontaneously active dopaminergic neurons in A10 region of guinea pigs; assay type: in vivo, guinea pig; conditions: haloperidol 1 mg/kg i.p., compound 0.1-1 mg/kg by the intraperitoneal route
T3 construct: from tissue; host or cells: guinea pig brain (septum/hippocampus; A10/VTA), living animal
T3 sequence (P30098 1-440): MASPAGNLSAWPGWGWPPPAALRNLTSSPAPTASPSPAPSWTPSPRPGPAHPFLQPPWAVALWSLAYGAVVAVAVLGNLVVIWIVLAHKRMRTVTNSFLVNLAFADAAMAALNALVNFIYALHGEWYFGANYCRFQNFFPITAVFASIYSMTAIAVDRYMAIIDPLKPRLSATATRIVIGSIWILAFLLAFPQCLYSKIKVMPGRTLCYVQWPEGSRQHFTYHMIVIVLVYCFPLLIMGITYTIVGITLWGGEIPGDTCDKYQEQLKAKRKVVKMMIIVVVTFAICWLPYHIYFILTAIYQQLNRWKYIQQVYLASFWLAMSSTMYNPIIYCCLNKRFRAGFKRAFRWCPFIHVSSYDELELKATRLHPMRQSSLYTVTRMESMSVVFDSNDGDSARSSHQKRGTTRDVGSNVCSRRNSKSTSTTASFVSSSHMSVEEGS
From the text: This increase is mediated by the activation of the NK3 receptors by endogenous neurokinin B (C. Gueudet et al., Synapse, 1999, 33, 71-79).

NK2 receptor = assay: Rotating behaviour induced by intrastriatal [Nle10]NKA(4-10) in gerbils; assay type: in vivo, gerbil; conditions: [Nle10]NKA(4-10) intrastriatal
Description: In gerbils, a rotating behaviour is induced by intrastriatal administration of a specific agonist of the NK2 receptor, [Nle^10]NKA(4-10); it was observed that a unilateral application of [Nle^10]NKA(4-10) into the gerbil striatum leads to strong contralateral rotations which are inhibited by the compounds according to the invention administered either by the intraperitoneal route, or by the oral route. This test was carried out according to M. Poncelet et al., Neurosci, Lett., 1993, 149, 40-42. In this test, the compounds according to the invention are active at doses ranging from 0.1 mg to 30 mg per kg.

NK2 receptors [4] = target: T1, NK2 receptors; assay: Constraint stress-induced increase in tissue level of DOPAC in prefrontal cortex of rats; assay type: in vivo; conditions: 1 mg/kg by the intraperitoneal route
From the text: In rats, constraint stress causes an increase in the tissue level of DOPAC (3,4-dihydroxyphenyl acetic acid) in the prefrontal cortex (test carried out according to B. A. Morrow et al., Eur. J. Pharmacol., 1993, 238, 255-262).

NK3 receptors [5] = target: T3, NK3 receptors; assay: Increase in hippocampal acetylcholine release caused by NK3 agonist applied in the septum of guinea pigs; assay type: in vivo, guinea pig; conditions: 0.3-1 mg/kg by the intraperitoneal route
From the text: (§1) In rats, the application of an agonist of the NK2 receptors in the septum causes an increase in the release of acetylcholine in the hippocampus (test carried out according to R. Steinberg et al., Eur. J. Neurosci., 1998, 10, 2337-2345). Likewise in guinea pigs, the local application of an agonist of the NK3 receptors in the septum causes an increase in the release of acetylcholine in the hippocampus (test carried out according to N. Marco et al., Neuropeptides, 1998, 32, 481-488).

[6] = target: T4, cloned human NK3 receptors (Homo sapiens, UniProt P29371); assay: Binding of [125I]His[MePhe7]NKB to cloned human NK3 receptors expressed by CHO cells; conditions: read-out: inhibition constant Ki, binding of [125I]His[MePhe7]NKB to cloned human NK3 receptors
T4 construct: expressed in transfected cells; host or cells: CHO cells
T4 sequence (P29371 1-465): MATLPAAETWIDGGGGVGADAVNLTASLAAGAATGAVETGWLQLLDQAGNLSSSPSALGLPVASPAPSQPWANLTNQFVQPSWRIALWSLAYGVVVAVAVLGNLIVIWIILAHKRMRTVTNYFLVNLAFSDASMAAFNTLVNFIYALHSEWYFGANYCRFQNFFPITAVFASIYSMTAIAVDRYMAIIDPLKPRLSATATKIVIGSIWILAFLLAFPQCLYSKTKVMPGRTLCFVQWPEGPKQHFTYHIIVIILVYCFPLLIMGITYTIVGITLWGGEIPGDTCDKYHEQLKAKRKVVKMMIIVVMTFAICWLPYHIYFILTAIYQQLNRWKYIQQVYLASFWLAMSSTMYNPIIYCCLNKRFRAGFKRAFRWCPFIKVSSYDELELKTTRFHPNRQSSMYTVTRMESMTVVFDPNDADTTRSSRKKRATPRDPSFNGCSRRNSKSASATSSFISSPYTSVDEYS
Description: The affinity of the compounds for tachykinin receptors was evaluated in vitro by several biochemical tests using radioligands: 3) The binding of [^125I]His[[…]]NKB to the cloned human NK3 receptors expressed by CHO cells (Buell et al., FEBS Letters, 1992, 299, 90-95). The tests were carried out according to X. Emonds-Alt et al. (Eur. J. Pharmacol., 1993, 250, 403-413; Life Sci., 1995, 56, PL 27-32).

NK2 receptors [7] = target: T1, NK2 receptors; assay: Increase in hippocampal acetylcholine release caused by NK2 agonist applied in the septum of rats; assay type: in vivo; conditions: 0.1-0.3 mg/kg by the intraperitoneal route
From the text: as §1

CC(=O)NC1(c2ccccc2)CCN(CC[C@H](CN(C)C(=O)c2ccccc2)c2ccc(Cl)c(Cl)c2)CC1 [saredutant]
effect on constraint stress-induced increase in DOPAC tissue level in prefrontal cortex (NK2 receptors [1]): blocked

CN(C)C(=O)C1(N2CCCCC2)CCN(CCC2(c3ccc(Cl)c(Cl)c3)CN(C(=O)c3ccccc3)CCO2)CC1 (single isomer, unassigned) [Example 1, N,N-Dimethyl-1-[2-[4-benzoyl-2-(3,4-dichloro-phenyl)morpholin-2-yl]ethyl]-4-(piperidin-1-yl)-piperidine-4-carboxamide dihydrochloride, dextrorotatory isomer]
pKi [2]: 10.40 | ED50, inhibition of contralateral rotations (NK3 receptor; intraperitoneal route): 2.8 mg per kg | ED50, inhibition of contralateral rotations (NK3 receptor; oral route): 4.3 mg per kg | effect on haloperidol-induced increase in number of spontaneously active dopaminergic neurons (A10 region) (NK3 receptors [3]): blocks | effective dose 50 (ED50), inhibition of contralateral rotations (NK2 receptor; intraperitoneal route): 2.9 mg per kg | effective dose 50 (ED50), inhibition of contralateral rotations (NK2 receptor; oral route): 6.5 mg per kg | effect on constraint stress-induced increase in DOPAC tissue level in prefrontal cortex (NK2 receptors [4]): completely blocks | effect on increase in release of acetylcholine in the hippocampus caused by an NK3 agonist (NK3 receptors [5]): blocks | pKi [6]: 10.40 | effect on increase in release of acetylcholine in the hippocampus caused by an NK2 agonist (NK2 receptors [7]): blocks

NC(=O)C1(N2CCCCC2)CCN(CCC2(c3ccc(Cl)c(Cl)c3)CN(C(=O)c3ccccc3)CCO2)CC1 (stereo not drawn) [compound α, 1-[2-[4-benzoyl-2-(3,4-dichlorophenyl)morpholin-2-yl]ethyl]-4-(piperidin-1-yl)piperidine-4-carboxamide, reference compound]
pKi [2]: 10.40 | pKi [6]: 8.70
